Experimental data: US20140322278A1, “Modulation of Tissue Transglutaminase Activation in Disease” (The Board of Trustees of the Leland Stanford Junior …, priority 2011, published 2014)
“Also recorded” adds a separate entry of the source. Blank lines part the entries; values can stand above or below the molecule they belong to.

Experiments:
[1] = Reactivity of disulfide inhibitors towards dithiothreitol
human thioredoxin = molecular target: T1, human thioredoxin (Homo sapiens, UniProt P10599); experiment: Inhibition of human thioredoxin by disulfide analogs of PX-12 (kinh/Ki); type: biochemical
T1 construct: made in house; host or cells: E. coli
T1 sequence (P10599 1-105): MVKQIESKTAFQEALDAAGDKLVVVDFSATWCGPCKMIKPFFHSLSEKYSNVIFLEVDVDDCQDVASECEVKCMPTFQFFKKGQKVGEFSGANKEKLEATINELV

[2] = system: TG2 activation in WI-38 monolayers; experiment: Thioredoxin-induced TG2 activation in WI-38 monolayers, 5BP incorporation ELISA; type: cell-based, human
Description: (§1) FIG. 7. Dose dependence of TG2 activation in response to recombinant human thioredoxin treatments of T84 and WI-38 monolayers measured in a quantitative enzyme linked immunosorbent type assay. Cellular monolayers were treated for 3 hrs at 0-10 μM thioredoxin with or without TG2 inhibition using 25 μM ERW1041E or with or without using 0-50 μM thioredoxin inhibitor PX-12. TG2 activation was quantified by the amount of 5BP crosslinked to native proteins in the extracellular matrix of cultured monolayers as measured by tetramethylbenzidine turnover via streptavidin-HRP labeling. (A) and (B) Illustrate the dependence of 5BP incorporation on thioredoxin exposure concentration in T84 and WI-38 cells, respectively. […] (C) and (D) Illustrate the dependence of 5BP incorporation on the ability of thioredoxin to activate TG2. TG2 activation was highest for control experiments with 0 μM PX-12. The amount of PX-12 required to reduce the 5BP incorporation in half at saturating concentrations of 3 μM thioredoxin in T84 and WI-38 cultures was 11 μM and 5 μM PX-12, respectively. […] Data reported as mean+/−standard deviation.
(§2) To test whether recombinant human thioredoxin could directly activate TG2 in cell culture, we used T84 and WI-38 monolayers in similar assays as described herein. T84 and WI-38 cells were grown into mature monolayers at which point varying amounts of pre-reduced thioredoxin were added to the culture medium along with 5BP and/or small molecule inhibitors, such as the TG2 inhibitor, ERW1041E, or the thioredoxin inhibitor, PX-12. 5BP incorporated into the extracellular matrix of cultured monolayers via activated TG2 was then quantified.

Trx = molecular target: T2, Trx (Homo sapiens, UniProt P10599); experiment: Cell-free assay for Trx-mediated activation of oxidized TG2; type: biochemical; conditions: dose-dependent; 100 μM PX-12
T2 construct: made in house; host or cells: E. coli (Trx)
T2 sequence (P10599 1-105): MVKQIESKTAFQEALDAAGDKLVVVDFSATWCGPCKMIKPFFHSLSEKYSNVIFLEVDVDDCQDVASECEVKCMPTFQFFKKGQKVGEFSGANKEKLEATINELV
Description: (§3) To test our hypothesis, we measured the kinetics of Trx-mediated activation of oxidized TG2. Reduced forms of Trx from E. coli and human were prepared by overexpression in and purification from recombinant E. coli. Dithiothreitol (DTT) was used as a reference small molecule reducing agent. […] We therefore quantified the specificity of human Trx for human oxidized TG2 by measuring the Michaelis-Menten parameters for Trx-mediated reduction of oxidized TG2. Insulin, a well-characterized extracellular substrate of Trx, was used as a reference, and human thioredoxin reductase was used as a catalyst to achieve turnover under steady-state conditions. […] Based on these parameters, one can estimate that as little as 2.5 nM Trx in the extracellular matrix should be able to activate 10% of the local oxidized TG2 within 30 min.
The small molecule PX-12 (1,1-methylpropyl 2-imidazolyl disulfide) inhibits Trx by oxidizing its active site Cys.

[3] = cited from earlier work
[4] = system: TG2 activation in T84 monolayers; experiment: Thioredoxin-induced TG2 activation in T84 monolayers, 5BP incorporation ELISA; type: cell-based, human
Description: as §1, §2

human TG2 = molecular target: T3, human TG2 (Homo sapiens, UniProt P21980); experiment: TG2 inhibition kinetics (kinh/Ki); type: biochemical
T3 sequence (P21980 1-687): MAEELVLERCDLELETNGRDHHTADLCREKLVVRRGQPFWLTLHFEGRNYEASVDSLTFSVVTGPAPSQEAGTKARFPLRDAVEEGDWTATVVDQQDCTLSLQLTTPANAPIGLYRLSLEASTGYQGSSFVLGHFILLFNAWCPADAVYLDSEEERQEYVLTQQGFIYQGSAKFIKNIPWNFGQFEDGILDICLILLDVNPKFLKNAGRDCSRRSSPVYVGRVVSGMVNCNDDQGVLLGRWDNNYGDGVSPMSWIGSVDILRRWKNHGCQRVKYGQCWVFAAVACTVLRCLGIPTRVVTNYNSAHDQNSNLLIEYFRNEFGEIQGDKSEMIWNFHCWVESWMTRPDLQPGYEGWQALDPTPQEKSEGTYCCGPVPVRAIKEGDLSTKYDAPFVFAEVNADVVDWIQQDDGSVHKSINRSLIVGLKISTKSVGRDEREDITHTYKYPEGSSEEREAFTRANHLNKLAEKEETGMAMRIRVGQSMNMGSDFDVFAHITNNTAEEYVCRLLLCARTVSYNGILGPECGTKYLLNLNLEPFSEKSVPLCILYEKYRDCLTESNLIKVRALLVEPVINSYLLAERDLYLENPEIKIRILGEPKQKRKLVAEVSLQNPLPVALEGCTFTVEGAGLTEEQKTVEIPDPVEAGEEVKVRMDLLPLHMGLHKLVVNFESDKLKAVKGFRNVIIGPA

[5] = system: TG2 activation in T84 monolayers; experiment: IFN-γ induced TG2 activation in T84 monolayers, 5BP incorporation ELISA; type: cell-based, human; conditions: IFN-γ up to 1000 U/mL, 25 μM ERW1041E
Description: FIG. 2. Dose and time dependence of TG2 activation in response to IFN-γ treatments of T84 monolayers measured in a quantitative enzyme linked immunosorbent type assay. T84 monolayers were treated for 1 to 72 hrs at 0-1000 U/mL IFN-γ with or without TG2 inhibition using 25 μM ERW1041E. TG2 activation was quantified by the amount of 5BP crosslinked to native proteins in the T84 cells as measured by tetramethylbenzidine turnover via streptavidin-HRP labeling. 5BP incorporation is dependent on IFN-γ exposure concentration. […] Data reported as mean+/−standard deviation.
FIG. 3. […] (B) Dose and time dependence of TG2 activation in response to IFN-γ treatments of T84 monolayers measured in a quantitative enzyme linked immunosorbent type assay. […] TG2 activation was quantified by the amount of 5BP crosslinked to native proteins in the T84 cells as measured by tetramethylbenzidine turnover via streptavidin-HRP labeling. […]
In addition to increasing the paracellular permeability of antigenic gluten peptides, we sought to determine if IFN-γ could activate TG2 in the extracellular matrix of mature T84 monolayers. […] To quantify the extent to which IFN-γ activates TG2 in the T84 model system, an enzyme linked immunosorbent assay (ELISA) was developed, using streptavidin conjugated to horseradish peroxidase. […]

[6] = molecular target: T4, human transglutaminase 1 (TG1) (Homo sapiens, UniProt P22735); experiment: TG1 inhibition kinetics (kinh/Ki); type: biochemical
T4 sequence (P22735 1-817): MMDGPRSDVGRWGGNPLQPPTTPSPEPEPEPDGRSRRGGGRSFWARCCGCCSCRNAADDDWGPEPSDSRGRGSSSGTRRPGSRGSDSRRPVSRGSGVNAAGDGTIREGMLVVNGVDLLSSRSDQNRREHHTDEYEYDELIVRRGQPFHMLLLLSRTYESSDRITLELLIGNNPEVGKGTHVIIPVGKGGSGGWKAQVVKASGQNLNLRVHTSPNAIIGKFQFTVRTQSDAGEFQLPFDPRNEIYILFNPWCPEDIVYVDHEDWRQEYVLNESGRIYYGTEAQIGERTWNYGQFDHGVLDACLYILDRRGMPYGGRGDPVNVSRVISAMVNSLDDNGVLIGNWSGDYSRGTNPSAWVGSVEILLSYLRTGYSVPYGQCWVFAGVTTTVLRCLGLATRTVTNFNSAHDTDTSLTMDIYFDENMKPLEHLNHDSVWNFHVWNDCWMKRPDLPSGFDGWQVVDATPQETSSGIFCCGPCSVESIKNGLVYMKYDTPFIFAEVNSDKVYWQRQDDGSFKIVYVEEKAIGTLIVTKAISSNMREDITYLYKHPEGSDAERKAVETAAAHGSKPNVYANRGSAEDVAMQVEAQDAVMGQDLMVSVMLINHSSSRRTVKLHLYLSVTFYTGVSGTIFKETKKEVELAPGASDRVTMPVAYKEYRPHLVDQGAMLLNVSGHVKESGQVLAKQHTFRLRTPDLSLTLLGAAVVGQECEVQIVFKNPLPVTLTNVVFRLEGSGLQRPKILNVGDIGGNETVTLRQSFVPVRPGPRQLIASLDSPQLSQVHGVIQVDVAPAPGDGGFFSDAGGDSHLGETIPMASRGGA

Insulin = experiment: Kinetics of Trx-mediated reduction of insulin (reference substrate); type: biochemical; conditions: human thioredoxin reductase as catalyst, steady state
Description: as §3

[7] = Homo sapiens, saturating 3 μM thioredoxin, read-out: amount of PX-12 required to reduce the 5BP incorporation in half
[8] = thioredoxin 0-10 μM, 3 hrs, 25 μM ERW1041E

Trx kinh/Ki (human thioredoxin; human thioredoxin, bimolecular parameter estimating potency): 2670 M⁻¹ s⁻¹
Trx/DTT (human thioredoxin; ratio of reactivity towards Trx relative to DTT (selectivity)): 15
Trx-mediated activation of oxidized TG2 (Trx): complete inactivation
IC50 [4, 7]: 11 µM
Molecule: CCC(C)SSc1ncc[nH]1 (stereo not shown) [compound 1, 1-methylpropyl 2-imidazolyl disulfide]
DTT k [1]: 180 M⁻¹ s⁻¹
IC50 [2, 7]: 5 µM
5BP incorporation in response to thioredoxin ([2]; PX-12 0-50 μM): quantitatively reduced
adverse effects in humans ([3]; high doses administered to humans): without any serious adverse effects
toxicity due to the 2-butanethiol leaving group ([3]; previous human clinical studies): dose-limiting toxicity
5BP incorporation in response to thioredoxin ([4]; PX-12 0-50 μM): quantitatively reduced

kinh/Ki TG2 (human TG2): 283.15 M⁻¹ s⁻¹
kinh/Ki TG1 [6]: 220.37 M⁻¹ s⁻¹
Molecule: O=C(NC[C@@H]1CC(Br)=NO1)[C@@H]1CCCN1C(=O)OCc1cnc2ccccc2c1 [compound 2]
TG2 activation (5BP incorporation) in response to thioredoxin [2, 8]: completely negates; also recorded: reduced to basal levels
TG2 activation (5BP incorporation) [5]: completely blocked 5BP incorporation; also recorded: reduced to basal levels
TG2 activation (5BP incorporation) in response to thioredoxin [4, 8]: completely negates; also recorded: reduced to basal levels

B1: recombinant human Trx: reduced human thioredoxin, overexpressed in and purified from recombinant E. coli (protein, UniProt P10599 2-105, looked up)
Thioredoxin: VKQIESKTAFQEALDAAGDKLVVVDFSATWCGPCKMIKPFFHSLSEKYSNVIFLEVDVDDCQDVASECEVKCMPTFQFFKKGQKVGEFSGANKEKLEATINELV
modifications: reduced
notes: reduced human thioredoxin, overexpressed in and purified from recombinant E. coli
Km (Insulin): 30 µM
